In the supplement of paper PMC10307832:

Legend:
Assay in all cases: relative viability (nuclei count vs DMSO), 5 days (fraction); higher = more cells survive
EKVX = tested on: EKVX
Summary of the method: (§1)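 Five library-drug doses in √10 steps were combined with a fixed anchor-drug dose, or a single drug was given alone, by pin tool to lung cancer cell lines in 1536-well plates the day after seeding. Nuclei were stained and counted after 5 days. Relative viability is the nuclei count in treated wells over that in vehicle wells, taken as the median of duplicate plates.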

201T = tested on: 201T
Summary of the method: as §1

NCI-H1734 = tested on: NCI-H1734
Summary of the method: as §1

HCC-15 = tested on: HCC-15
Summary of the method: as §1

HCC-78 = tested on: HCC-78
Summary of the method: as §1

A-427 = tested on: A-427
Summary of the method: as §1

NCI-H1915 = tested on: NCI-H1915
Summary of the method: as §1

NCI-H647 = tested on: NCI-H647
Summary of the method: as §1

NCI-H522 = tested on: NCI-H522
Summary of the method: as §1

NCI-H1993 = tested on: NCI-H1993
Summary of the method: as §1

PC-14 = tested on: PC-14
Summary of the method: as §1

LK-2 = tested on: LK-2
Summary of the method: as §1

HOP-62 = tested on: HOP-62
Summary of the method: as §1

COR-L 105 = tested on: COR-L 105
Summary of the method: as §1

NCI-H661 = tested on: NCI-H661
Summary of the method: as §1

COR-L23 = tested on: COR-L23
Summary of the method: as §1

SK-MES-1 = tested on: SK-MES-1
Summary of the method: as §1

BEN = tested on: BEN
Summary of the method: as §1

EMC-BAC-2 = tested on: EMC-BAC-2
Summary of the method: as §1

NCI-H2405 = tested on: NCI-H2405
Summary of the method: as §1

HCC-366 = tested on: HCC-366
Summary of the method: as §1

NCI-H460 = tested on: NCI-H460
Summary of the method: as §1

CCNC(=O)c1noc(-c2cc(C(C)C)c(O)cc2O)c1-c1ccc(CN2CCOCC2)cc1 [Luminespib] + Cc1cc(Nc2cc(N3CCN(C)CC3)nc(Sc3ccc(NC(=O)C4CC4)cc3)n2)n[nH]1 [Tozasertib] (partner 0.1 µM)
relative viability (EKVX; first compound 0.002 µM): 0.436
relative viability (EKVX; first compound 0.006325 µM): 0.389
relative viability (EKVX; first compound 0.06325 µM): 0.346
relative viability (EKVX; first compound 0.2 µM): 0.165
relative viability (201T; first compound 0.002 µM): 0.988
relative viability (201T; first compound 0.006325 µM): 0.907
relative viability (201T; first compound 0.02 µM): 0.665
relative viability (201T; first compound 0.06325 µM): 0.89
relative viability (201T; first compound 0.2 µM): 0.849
relative viability (NCI-H1734; first compound 0.002 µM): 0.248
relative viability (NCI-H1734; first compound 0.006325 µM): 0.254
relative viability (NCI-H1734; first compound 0.02 µM): 0.252
relative viability (NCI-H1734; first compound 0.06325 µM): 0.143
relative viability (NCI-H1734; first compound 0.2 µM): 0.154
relative viability (HCC-15; first compound 0.002 µM): 0.466
relative viability (HCC-15; first compound 0.006325 µM): 0.441
relative viability (HCC-15; first compound 0.02 µM): 0.444
relative viability (HCC-15; first compound 0.06325 µM): 0.173
relative viability (HCC-15; first compound 0.2 µM): 0.0953
relative viability (HCC-78; first compound 0.002 µM): 0.399
relative viability (HCC-78; first compound 0.006325 µM): 0.273
relative viability (HCC-78; first compound 0.06325 µM): 0.467
relative viability (HCC-78; first compound 0.2 µM): 0.303
relative viability (A-427; first compound 0.002 µM): 0.218
relative viability (A-427; first compound 0.006325 µM): 0.204
relative viability (A-427; first compound 0.02 µM): 0.151
relative viability (A-427; first compound 0.06325 µM): 0.226
relative viability (A-427; first compound 0.2 µM): 0.134
relative viability (NCI-H1915; first compound 0.002 µM): 0.449
relative viability (NCI-H1915; first compound 0.006325 µM): 0.518
relative viability (NCI-H1915; first compound 0.02 µM): 0.377
relative viability (NCI-H1915; first compound 0.06325 µM): 0.364
relative viability (NCI-H1915; first compound 0.2 µM): 0.187
relative viability (NCI-H647; first compound 0.002 µM): 0.299
relative viability (NCI-H647; first compound 0.006325 µM): 0.274
relative viability (NCI-H647; first compound 0.02 µM): 0.431
relative viability (NCI-H647; first compound 0.06325 µM): 0.0669
relative viability (NCI-H647; first compound 0.2 µM): 0.0766
relative viability (NCI-H522; first compound 0.002 µM): 0.621
relative viability (NCI-H522; first compound 0.006325 µM): 0.545
relative viability (NCI-H522; first compound 0.02 µM): 0.512
relative viability (NCI-H522; first compound 0.06325 µM): 0.584
relative viability (NCI-H522; first compound 0.2 µM): 0.512
relative viability (NCI-H1993; first compound 0.002 µM): 0.539
relative viability (NCI-H1993; first compound 0.006325 µM): 0.6
relative viability (NCI-H1993; first compound 0.02 µM): 0.533
relative viability (NCI-H1993; first compound 0.06325 µM): 0.5
relative viability (NCI-H1993; first compound 0.2 µM): 0.437
relative viability (PC-14; first compound 0.002 µM): 0.567
relative viability (PC-14; first compound 0.006325 µM): 0.547
relative viability (PC-14; first compound 0.02 µM): 0.326
relative viability (PC-14; first compound 0.06325 µM): 0.0498
relative viability (PC-14; first compound 0.2 µM): 0.0697
relative viability (LK-2; first compound 0.002 µM): 0.184
relative viability (LK-2; first compound 0.006325 µM): 0.194
relative viability (LK-2; first compound 0.02 µM): 0.154
relative viability (LK-2; first compound 0.06325 µM): 0.208
relative viability (LK-2; first compound 0.2 µM): 0.182
relative viability (HOP-62; first compound 0.002 µM): 0.363
relative viability (HOP-62; first compound 0.006325 µM): 0.352
relative viability (HOP-62; first compound 0.02 µM): 0.403
relative viability (HOP-62; first compound 0.06325 µM): 0.389
relative viability (HOP-62; first compound 0.2 µM): 0.232
relative viability (COR-L 105; first compound 0.002 µM): 0.37
relative viability (COR-L 105; first compound 0.006325 µM): 0.385
relative viability (COR-L 105; first compound 0.02 µM): 0.232
relative viability (COR-L 105; first compound 0.06325 µM): 0.465
relative viability (COR-L 105; first compound 0.2 µM): 0.191
relative viability (NCI-H661; first compound 0.002 µM): 0.352
relative viability (NCI-H661; first compound 0.006325 µM): 0.358
relative viability (NCI-H661; first compound 0.02 µM): 0.348
relative viability (NCI-H661; first compound 0.06325 µM): 0.357
relative viability (NCI-H661; first compound 0.2 µM): 0.292
relative viability (COR-L23; first compound 0.002 µM): 0.237
relative viability (COR-L23; first compound 0.006325 µM): 0.192
relative viability (COR-L23; first compound 0.02 µM): 0.272
relative viability (COR-L23; first compound 0.06325 µM): 0.0698
relative viability (COR-L23; first compound 0.2 µM): 0.0682
relative viability (SK-MES-1; first compound 0.002 µM): 0.822
relative viability (SK-MES-1; first compound 0.006325 µM): 0.849
relative viability (SK-MES-1; first compound 0.02 µM): 1.01
relative viability (SK-MES-1; first compound 0.06325 µM): 0.144
relative viability (SK-MES-1; first compound 0.2 µM): 0.159
relative viability (BEN; first compound 0.002 µM): 0.554
relative viability (BEN; first compound 0.006325 µM): 0.458
relative viability (BEN; first compound 0.02 µM): 0.475
relative viability (BEN; first compound 0.06325 µM): 0.37
relative viability (BEN; first compound 0.2 µM): 0.383
relative viability (EMC-BAC-2; first compound 0.002 µM): 0.345
relative viability (EMC-BAC-2; first compound 0.006325 µM): 0.261
relative viability (EMC-BAC-2; first compound 0.02 µM): 0.28
relative viability (EMC-BAC-2; first compound 0.06325 µM): 0.342
relative viability (EMC-BAC-2; first compound 0.2 µM): 0.299
relative viability (NCI-H2405; first compound 0.002 µM): 0.812
relative viability (NCI-H2405; first compound 0.006325 µM): 0.575
relative viability (NCI-H2405; first compound 0.02 µM): 0.808
relative viability (NCI-H2405; first compound 0.06325 µM): 0.34
relative viability (NCI-H2405; first compound 0.2 µM): 0.152
relative viability (HCC-366; first compound 0.002 µM): 0.13
relative viability (HCC-366; first compound 0.006325 µM): 0.105
relative viability (HCC-366; first compound 0.02 µM): 0.108
relative viability (HCC-366; first compound 0.06325 µM): 0.228
relative viability (HCC-366; first compound 0.2 µM): 0.0502
relative viability (NCI-H460; first compound 0.002 µM): 0.554
relative viability (NCI-H460; first compound 0.006325 µM): 0.421
relative viability (NCI-H460; first compound 0.02 µM): 0.597
relative viability (NCI-H460; first compound 0.06325 µM): 0.0212
relative viability (NCI-H460; first compound 0.2 µM): 0.0218
